Data on four molecules can be found in patent US20250360069A1, “SUNSCREEN COMPOSITION FOR LACTOBACILLUS AND S. EPIDERMIDIS PROTECTION ON SKIN” (DSM IP Assets B.V., priority 2022, published 2025).

The test system of assay [1] is Staphylococcus epidermidis ATCC 12228. In words: In vitro UV model: bacterial survival upon UV irradiation (96-well, MPN count). The assay is classed as cell-based. The conditions noted are these: sample 20% v/v, UV 15 SED (150 mJ/cm^2 UVA+UVB), after 4 h; for S. epidermidis survival: compared to untreated and non-irradiated control. How it is done:
(§1) The microbial strains used in this study are listed below and their cultures are reconstituted according to the direction of the supplier collection center of the reference strain, CRBIP (Institut Pasteur Collection, France) or ATCC (American Type Culture Collection, USA): • Lactobacillus crispatus CIP 103604 • Staphylococcus epidermidis ATCC 12228 The 96-well plate was filled with the culture media (140 μL) and a calibrated inoculum (20 μL) of each bacterial strain was added to reach […] colony forming units per milliliter (cfu/mL) final concentration. After contamination, the sample was added (40 μL; 20% v/v) in triplicate and was thoroughly mixed to ensure a homogeneous distribution. Then, the plate was submitted to UV stress through an UV irradiator system (BioSun, Vilber Lourmat, France) according to the UV doses presented Table 1 below. The specific UV dose selected was between 10 and 49% survival of the microbial population. For the microbial population counts, aliquots of the contaminated samples of L. crispatus and S. epidermidis were serially diluted (4 decimal dilutions followed by 8 binary dilutions, in triplicate) in culture media on 96-wells plates with triphenyltetrazolium. Then, the plates were incubated at 37° C.±2,5° C. during 48 h taking into account the respiratory type of each strain. After 48 h at the optimal growing conditions, the last dilution showing a pink color (triphenyltetrazolium) or turbidity indicated the contamination rate and allowed the determination of the decrease rate of microbial population (most probable number MPN method). Controls performed during this experiment were the culture medium with bacteria incubated without UV stress. The microbial population counts were expressed in cfu/mL and were the average of experiment done in triplicate. The use level of the single UV filter and combinations in the test formulations was calculated to obtain a predicted in vitro SPF value of 5.75+/−0.15 and 23.45+/−0.65, respectively (Table 2). The UV filters were mixed in the two oils, Tegosoft XC (55%) and Miglyol 829 Eco (ad100%) and the emulsifier Tween 80 (5%). The effect of selected UV irradiation conditions on the survival of microbial population of L. crispatus and S. epidermidis in the presence of the tested samples 1-10 at 20% v/v, was compared with the corresponding strain in the absence of samples 1-10 and without exposure to UV irradiation (control). The results after the 4-hour incubation were compared to the population of bacteria incubated without UV stress (determination of bacterial population survival) and were expressed in percentage of survival. The relative percentage of protection (%) was calculated from the difference between the survival percentages of samples and vehicle control (with UV irradiation) and divided to the survival percentage of the vehicle control. Consequently, the survival of each microbial population and the relative protection by the UV filter(s) were calculated and are summarized in the Table 2.

Assay [2] concerns Lactobacillus crispatus CIP 103604. The assay is described as above. Type of assay: cell-based. The note with it: sample 20% v/v, UV 50 SED (500 mJ/cm^2 UVA+UVB), after 4 h; for L. crispatus survival: compared to untreated and non-irradiated control. On the procedure:
as §1

Turning to `CCCCC(CC)COC(=O)C(C#N)=C(c1ccccc1)c1ccccc1` (stereo not shown) [Inv. 1, Octocrylene], in assay [1], the “S. epidermidis relative protection by the UV filter(s) vs. vehicle control” value (“S. epidermidis relative protection” below) was “(+59) %” and the S. epidermidis survival came to 63%. For the same molecule, in assay [2], the “L. crispatus relative protection by the UV filter(s) vs. vehicle control” value (“L. crispatus relative protection” for short) is listed as “(+300) %” and the L. crispatus survival worked out at 50%.

In the case of `CCCCC(CC)COC(=O)c1ccc(Nc2nc(Nc3ccc(C(=O)OCC(CC)CCCC)cc3)nc(Nc3ccc(C(=O)OCC(CC)CCCC)cc3)n2)cc1` (stereo not shown) [Inv. 3, Ethylhexyl Triazone], in assay [1], the “S. epidermidis relative protection” value is reported as “(+59) %” and the S. epidermidis survival is on record as 63%. In assay [2], the “L. crispatus relative protection” value is “(+100) %” and the L. crispatus survival worked out at 25%.

With `CCCCC(CC)COC(=O)c1ccccc1O` (stereo not shown) [Ref. 1, Ethylhexyl Salicylate], in assay [1], the “S. epidermidis relative protection” value is “(+100) %” and the S. epidermidis survival was 79%. In assay [2], the “L. crispatus relative protection” value is given as “(+59) %” and the L. crispatus survival is given as 20%.

Consider `CCCCC(CC)COc1ccc(-c2nc(-c3ccc(OC)cc3)nc(-c3ccc(OCC(CC)CCCC)cc3O)n2)c(O)c1` (stereo not shown) [Ref. 2, Bis-Ethylhexyloxyphenol Methoxyphenyl Triazine], for which, in assay [1], the “S. epidermidis relative protection” value is reported as “(+100) %” and the S. epidermidis survival came out at 79%. In assay [2], the “L. crispatus relative protection” value is recorded as “(+59) %” and the L. crispatus survival is on record as 20%.
